Values after ≈ are worked out from the molar mass of the structure shown.
Key:
Staphylococcus aureus [1] = assay: Antibacterial activity against Staphylococcus aureus ATCC 4163 after 18 hrs by serial microdilution method in presence of histamine; type: functional; conditions: ATCC 4163, 18 h
Staphylococcus aureus [2] = assay: Antibacterial activity against Staphylococcus aureus ATCC 4163 after 18 hrs by serial microdilution method in presence of isoniazid; type: functional; conditions: ATCC 4163, 18 h
[3] = tested on: Staphylococcus epidermidis; assay: Antibacterial activity against Staphylococcus epidermidis ATCC 12228 after 18 hrs by serial microdilution method in presence of 4-fluorobenzylamine; type: functional; conditions: ATCC 12228, 18 h
[4] = tested on: Staphylococcus epidermidis; assay: Antibacterial activity against Staphylococcus epidermidis ATCC 12228 after 18 hrs by serial microdilution method in presence of histamine; type: functional; conditions: ATCC 12228, 18 h
Staphylococcus aureus [5] = assay: Antibacterial activity against Staphylococcus aureus ATCC 4163 after 18 hrs by serial microdilution method in presence of 2-chlorobenzylamine; type: functional; conditions: ATCC 4163, 18 h
[6] = tested on: Staphylococcus epidermidis; assay: Antibacterial activity against Staphylococcus epidermidis ATCC 12228 after 18 hrs by serial microdilution method in presence of 2-chlorobenzylamine; type: functional; conditions: ATCC 12228, 18 h
Staphylococcus aureus [7] = assay: Antibacterial activity against Staphylococcus aureus ATCC 25923 after 18 hrs by serial microdilution method in presence of histamine; type: functional; conditions: ATCC 25923, 18 h
[8] = tested on: Staphylococcus epidermidis; assay: Antibacterial activity against Staphylococcus epidermidis ATCC 49134 after 18 hrs by serial microdilution method in presence of 4-fluorobenzylamine; type: functional; conditions: ATCC 49134, 18 h
Staphylococcus aureus [9] = assay: Antibacterial activity against Staphylococcus aureus ATCC 6538 after 18 hrs by serial microdilution method; type: functional; conditions: ATCC 6538, 18 h
[10] = tested on: Staphylococcus epidermidis; assay: Antibacterial activity against Staphylococcus epidermidis ATCC 12228 after 18 hrs by serial microdilution method; type: functional; conditions: ATCC 12228, 18 h
[11] = Octanol-water partition coefficient, log P of the compound by UV-vis method in presence of histamine; type: physicochemical
[12] = Octanol-water partition coefficient, log P of the compound by UV-vis method; type: physicochemical
Staphylococcus aureus [13] = assay: Antibacterial activity against Staphylococcus aureus ATCC 25923 after 18 hrs by serial microdilution method in presence of 4-fluorobenzylamine; type: functional; conditions: ATCC 25923, 18 h
Staphylococcus aureus [14] = assay: Antibacterial activity against Staphylococcus aureus ATCC 25923 after 18 hrs by serial microdilution method; type: functional; conditions: ATCC 25923, 18 h
Staphylococcus aureus [15] = assay: Antibacterial activity against Staphylococcus aureus ATCC 25923 after 18 hrs by serial microdilution method in presence of isoniazid; type: functional; conditions: ATCC 25923, 18 h
Staphylococcus aureus [16] = assay: Antibacterial activity against Staphylococcus aureus ATCC 6538 after 18 hrs by serial microdilution method in presence of 2-chlorobenzylamine; type: functional; conditions: ATCC 6538, 18 h
Staphylococcus aureus [17] = assay: Antibacterial activity against Staphylococcus aureus ATCC 6538 after 18 hrs by serial microdilution method in presence of 4-fluorobenzylamine; type: functional; conditions: ATCC 6538, 18 h
[18] = Solubility of the compound in water at pH 7 in presence of histamine; type: physicochemical
[19] = tested on: Staphylococcus epidermidis; assay: Antibacterial activity against Staphylococcus epidermidis ATCC 49134 after 18 hrs by serial microdilution method in presence of isoniazid; type: functional; conditions: ATCC 49134, 18 h
Staphylococcus aureus [20] = assay: Antibacterial activity against Staphylococcus aureus ATCC 25923 after 18 hrs by serial microdilution method in presence of 2-chlorobenzylamine; type: functional; conditions: ATCC 25923, 18 h
[21] = tested on: Staphylococcus epidermidis; assay: Antibacterial activity against Staphylococcus epidermidis ATCC 49134 after 18 hrs by serial microdilution method in presence of 2-chlorobenzylamine; type: functional; conditions: ATCC 49134, 18 h
[22] = tested on: Staphylococcus epidermidis; assay: Antibacterial activity against Staphylococcus epidermidis ATCC 49134 after 18 hrs by serial microdilution method in presence of histamine; type: functional; conditions: ATCC 49134, 18 h
Staphylococcus aureus [23] = assay: Antibacterial activity against Staphylococcus aureus ATCC 4163 after 18 hrs by serial microdilution method; type: functional; conditions: ATCC 4163, 18 h
Staphylococcus aureus [24] = assay: Antibacterial activity against Staphylococcus aureus ATCC 6538 after 18 hrs by serial microdilution method in presence of isoniazid; type: functional; conditions: ATCC 6538, 18 h
[25] = Solubility of the compound in water at pH 7; type: physicochemical
[26] = tested on: Staphylococcus epidermidis; assay: Antibacterial activity against Staphylococcus epidermidis ATCC 49134 after 18 hrs by serial microdilution method; type: functional; conditions: ATCC 49134, 18 h
Staphylococcus aureus [27] = assay: Antibacterial activity against Staphylococcus aureus ATCC 6538 after 18 hrs by serial microdilution method in presence of histamine; type: functional; conditions: ATCC 6538, 18 h
[28] = tested on: Staphylococcus epidermidis; assay: Antibacterial activity against Staphylococcus epidermidis ATCC 12228 after 18 hrs by serial microdilution method in presence of isoniazid; type: functional; conditions: ATCC 12228, 18 h
Staphylococcus aureus [29] = assay: Antibacterial activity against Staphylococcus aureus ATCC 4163 after 18 hrs by serial microdilution method in presence of 4-fluorobenzylamine; type: functional; conditions: ATCC 4163, 18 h

## CO[C@H]1/C=C/O[C@@]2(C)Oc3c(C)c(O)c4c(O)c(c(CNc5ccc6c(c5)OCCOCCOCCOCCOCCO6)c(O)c4c3C2=O)NC(=O)/C(C)=C\C=C\[C@H](C)[C@H](O)[C@@H](C)[C@@H](O)[C@@H](C)[C@H](OC(C)=O)[C@@H]1C
Staphylococcus aureus [1]
  MIC: 0.125 µg/mL
Staphylococcus aureus [2]
  MIC: 1 µg/mL
[3]
  MIC: 0.25 µg/mL
[4]
  MIC: 1.25 µg/mL
Staphylococcus aureus [5]
  MIC: 0.25 µg/mL
[6]
  MIC: 0.25 µg/mL
Staphylococcus aureus [7]
  MIC: 0.125 µg/mL
[8]
  MIC: 0.25 µg/mL
Staphylococcus aureus [9]
  MIC: 2 µg/mL (≈ 1.93 µM)
[10]
  MIC: 0.5 µg/mL (≈ 0.482 µM)
[11]
  logP: 0.69
[12]
  logP: 0.53
Staphylococcus aureus [13]
  MIC: 0.25 µg/mL
Staphylococcus aureus [14]
  MIC: 2 µg/mL (≈ 1.93 µM)
Staphylococcus aureus [15]
  MIC: 1 µg/mL
Staphylococcus aureus [16]
  MIC: 0.25 µg/mL
Staphylococcus aureus [17]
  MIC: 0.25 µg/mL
[18]
  solubility: 410 µg/mL
[19]
  MIC: 0.5 µg/mL
Staphylococcus aureus [20]
  MIC: 0.25 µg/mL
[21]
  MIC: 0.25 µg/mL
[22]
  MIC: 0.125 µg/mL
Staphylococcus aureus [23]
  MIC: 2 µg/mL (≈ 1.93 µM)
Staphylococcus aureus [24]
  MIC: 1 µg/mL
[25]
  solubility: 110 µg/mL (≈ 106 µM)
[26]
  MIC: 0.5 µg/mL (≈ 0.482 µM)
Staphylococcus aureus [27]
  MIC: 0.125 µg/mL
[28]
  MIC: 0.5 µg/mL
Staphylococcus aureus [29]
  MIC: 0.25 µg/mL

From ChEMBL document CHEMBL3611969, “The effect of complexation of 3-formylrifamycin SV macrocyclic ether derivatives with metal cations and small nitrogen-containing organic molecules on antibacterial activity against S. aureus and S. epidermidis” (Bioorg Med Chem Lett, 2015)
